Experiments:
Assay in all cases: relative viability (nuclei count vs DMSO), 5 days (fraction); higher = more cells survive
Pazopanib + Foretinib = compound: Cc1ccc(Nc2nccc(N(C)c3ccc4c(C)n(C)nc4c3)n2)cc1S(N)(=O)=O [Pazopanib] + COc1cc2c(Oc3ccc(NC(=O)C4(C(=O)Nc5ccc(F)cc5)CC4)cc3F)ccnc2cc1OCCCN1CCOCC1 [Foretinib] (partner 0.25 µM)
Method in brief: (§1)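 Relative viability was taken as the ratio of nuclei in treated wells to nuclei in vehicle wells. Lung cancer cell lines in 1536-well plates received compounds by pin tool one day after seeding, either one drug alone or a fixed anchor-drug dose plus five library-drug doses (not always all listed) in √10 steps. Nuclei were counted on 4× images after 5 days of treatment, and values are medians of duplicate plates.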

Pazopanib + Tozasertib = compound: Cc1ccc(Nc2nccc(N(C)c3ccc4c(C)n(C)nc4c3)n2)cc1S(N)(=O)=O [Pazopanib] + Cc1cc(Nc2cc(N3CCN(C)CC3)nc(Sc3ccc(NC(=O)C4CC4)cc3)n2)n[nH]1 [Tozasertib] (partner 0.1 µM)
Method in brief: as §1

Ponatinib + Pemetrexed = compound: Cc1ccc(C(=O)Nc2ccc(CN3CCN(C)CC3)c(C(F)(F)F)c2)cc1C#Cc1cnc2cccnn12 [Ponatinib] + Nc1nc2[nH]cc(CCc3ccc(C(=O)N[C@@H](CCC(=O)O)C(=O)O)cc3)c2c(=O)[nH]1 [Pemetrexed] (partner 0.2 µM)
Method in brief: as §1

Pazopanib + Pemetrexed = compound: Cc1ccc(Nc2nccc(N(C)c3ccc4c(C)n(C)nc4c3)n2)cc1S(N)(=O)=O [Pazopanib] + Nc1nc2[nH]cc(CCc3ccc(C(=O)N[C@@H](CCC(=O)O)C(=O)O)cc3)c2c(=O)[nH]1 [Pemetrexed] (partner 0.2 µM)
Method in brief: as §1

Cell Line | relative viability (Pazopanib + Foretinib; first compound 0.01 µM) | relative viability (Pazopanib + Foretinib; first compound 0.03162 µM) | relative viability (Pazopanib + Foretinib; first compound 0.1 µM) | relative viability (Pazopanib + Foretinib; first compound 0.3162 µM) | relative viability (Pazopanib + Foretinib; first compound 1 µM) | relative viability (Pazopanib + Tozasertib; first compound 0.01 µM) | relative viability (Pazopanib + Tozasertib; first compound 0.03162 µM) | relative viability (Pazopanib + Tozasertib; first compound 0.1 µM) | relative viability (Pazopanib + Tozasertib; first compound 0.3162 µM) | relative viability (Pazopanib + Tozasertib; first compound 1 µM) | relative viability (Ponatinib + Pemetrexed; first compound 0.002 µM) | relative viability (Ponatinib + Pemetrexed; first compound 0.006325 µM) | relative viability (Ponatinib + Pemetrexed; first compound 0.06325 µM) | relative viability (Ponatinib + Pemetrexed; first compound 0.2 µM) | relative viability (Pazopanib + Pemetrexed; first compound 0.01 µM) | relative viability (Pazopanib + Pemetrexed; first compound 0.03162 µM) | relative viability (Pazopanib + Pemetrexed; first compound 0.1 µM) | relative viability (Pazopanib + Pemetrexed; first compound 0.3162 µM) | relative viability (Pazopanib + Pemetrexed; first compound 1 µM)
SW 1573 | 0.83 | 0.938 | 0.934 | 0.998 | 0.998 | 0.193 | 0.216 | 0.218 | 0.153 | 0.176 | 0.841 | 0.802 | 0.835 | 0.838 | 0.831 | 0.899 | 0.792 | 0.857 | 0.861
NCI-H1975 | 0.911 | 0.945 | 0.997 | 1.03 | 1.03 | 0.665 | 0.693 | 0.854 | 0.742 | 0.581 | 0.276 | 0.293 | 0.297 | 0.257 | 0.294 | 0.296 | 0.285 | 0.299 | 0.258
NCI-H1651 | 0.836 | 0.734 | 0.817 | 0.773 | 0.895 | 0.708 | 0.603 | 0.733 | 0.725 | 0.685 | 0.558 | 0.627 | 0.614 | 0.588 | 0.6 | 0.603 | 0.574 | 0.542 | 0.583
NCI-H460 | 0.942 | 1.07 | 1.01 | 1.03 | 0.997 | 0.564 | 0.503 | 0.523 | 0.494 | 0.393 | 0.06 | 0.062 | 0.0629 | 0.0632 | 0.0583 | 0.0636 | 0.0629 | 0.0703 | 0.0742
LCLC-103H | 0.651 | 0.897 | 0.734 | 0.819 | 0.894 | 0.456 | 0.464 | 0.46 | 0.467 | 0.479 | 0.446 | 0.5 | 0.483 | 0.416 | 0.447 | 0.477 | 0.399 | 0.494 | 0.491
LCLC-97TM1 | 0.908 | 0.976 | 1.03 | 0.909 | 0.905 | 0.222 | 0.221 | 0.185 | 0.195 | 0.166 | 0.166 | 0.142 | 0.167 | 0.161 | – | 0.165 | 0.136 | 0.157 | 0.154
NCI-H838 | 0.996 | 1.02 | 1.02 | 1.08 | 1.18 | 0.278 | 0.247 | 0.29 | 0.28 | 0.295 | 0.234 | 0.249 | 0.255 | 0.227 | 0.272 | 0.231 | 0.265 | 0.252 | 0.227
NCI-H1355 | 0.804 | 1 | 1.08 | 0.979 | 1 | 0.582 | 0.579 | 0.513 | 0.55 | 0.553 | 0.983 | 0.975 | 1.14 | 1.07 | 0.84 | 1.02 | 1.1 | 1.02 | 1.08
HOP-62 | 1.05 | 1.04 | 1.2 | 1.08 | 0.976 | 0.366 | 0.388 | 0.307 | 0.431 | 0.286 | 0.268 | 0.33 | 0.276 | 0.304 | 0.366 | 0.36 | 0.339 | 0.3 | 0.224
NCI-H2085 | 0.972 | 1.06 | 1.01 | 0.96 | 1.11 | 0.738 | 0.848 | 0.828 | 0.786 | 0.776 | 0.852 | 0.894 | 1.04 | 0.874 | 0.816 | 1.09 | 0.804 | 0.949 | 1.03
SW 900 | 0.843 | 0.886 | 0.941 | 0.876 | 0.97 | 0.556 | 0.443 | 0.495 | 0.578 | 0.53 | 0.458 | 0.495 | 0.457 | 0.464 | 0.512 | 0.504 | – | 0.494 | 0.5

— the supplement of paper PMC10307832
